Test results reported in US10640499B2 (Gilead Sciences, Inc., priority 2016, dated 2020).

What was measured:
Type in all cases: cell-based
[1] = tested on: TNFα; assay: Cytokine profiling assay in human PBMCs, TNFα detection (MSD); settings: PBMC; cryopreserved human PBMCs, 24 hours at 37° C.; concentration at half-maximal effect, normalized percent activation; read-out: TNFa AC50
Text: (§1) Cryopreserved human PBMCs isolated from healthy donors were purchased from StemCell Technologies (Vancouver, Canada). Cell culture medium used was RPMI with L-Glutamine (Mediatech, Manassas, Va.) supplemented with 10% fetal bovine serum (Hyclone, GE Healthcare, Logan, Utah) and Penicillin-Streptomycin (Mediatech). Human TNFα, IL12p40, and IFNα2a 384-well Assay capture plates, standards, buffers and processing reagents were obtained from MesoScale Discovery Technologies (MSD; Rockville, Md.).
(§2) Cryopreserved human PBMCs (1×10e8 cells/ml) were thawed at 37° C. and resuspended in 25 mL warm cell culture medium. The cells were pelleted at 200×g (Beckman Avanti J-E) for 5 min and resuspended in 20 mL of fresh culture media. Cells were counted using a Cellometer (Nexcelcom Bioscience), adjusted to 2×10e6 cells, and incubated for 2 hours in an incubator set at 37° C., 5% CO2 to recover from cryopreservation. Compounds were serially diluted in DMSO at half-log steps to generate a 10-point dose range. Using a Bravo pipette equipped with a 384 well head (Agilent), 0.4 μL of compound was transferred to each well of a 384 well black, clear bottom plate (Greiner Bio-One, Germany) containing 30 μL of cell culture medium. Recovered PBMCs were then dispensed into the assay plate at 50 μL per well (100 k cells/well) using the MicroFlow multichannel dispenser (Biotek). Final DMSO concentration was 0.5%. DMSO was used as the negative control. The plates were incubated for 24 hours at 37° C. PBMCs in the assay plate were pelleted by centrifugation (Beckman Avanti J-E) at 200×g for 5 min.
(§3) Using a Biomek FX 384 well pipetting station (Beckman), conditioned culture medium (CCM) from the assay plate was transferred to MSD capture plates customized for each cytokine. For IFNα and IL12-p40 detection, 25 μL and 20 μL of CCM were added directly to each capture plate, respectively. For TNFα detection, CCM was diluted 1:9 in fresh culture medium, and 20 μL of diluted CCM was used. Serially diluted calibration standards for each cytokine were used to generate standard curves and establish assay linearity. The plates were sealed and incubated overnight at 4° C. in a plate shaker (Titer Plate) set at 200 rpm. On the following day, antibodies specific for each cytokine were diluted 1:50 in MSD Diluent 100 antibody dilution buffer. Diluted antibodies were added to corresponding capture plates at 10 μL/well, and incubated at RT for 1-2 hrs in the shaker. The plates were washed with PBST buffer (3×, 60 μl/well) using a Biotek Multiflow plate washer. MSD Read Buffer diluted to 2× in deionized water and 35 μL/well was added via Biomek FX instrument. The plates were read immediately in a MSD6000 reader. Data were normalized to positive and negative controls in each assay plate. AC50 values represent compound concentrations at half-maximal effect based on normalized percent activation and calculated by non-linear regression using Pipeline Pilot software (Accelrys, San Diego, Calif.).

[2] = tested on: IL12p40; assay: Cytokine profiling assay in human PBMCs, IL12-p40 detection (MSD); settings: PBMC; cryopreserved human PBMCs, 24 hours at 37° C.; concentration at half-maximal effect, normalized percent activation
Text: as §1, §2, §3

[3] = tested on: IFNα; assay: Cytokine profiling assay in human PBMCs, IFNα detection (MSD); settings: PBMC; cryopreserved human PBMCs, 24 hours at 37° C.; concentration at half-maximal effect, normalized percent activation; read-out: IFNa AC50
Text: as §1, §2, §3

| SMILES | AC50 [1] [µM] | AC50 [2] [µM] | AC50 [3] [µM] |
| --- | --- | --- | --- |
| CCCC[C@](C)(CNC(C)=O)Nc1nc(N)nc2cc(CC)cnc12 [Compound 1, (R)—N-(2-((2-amino-7-ethylpyrido[3,2-d]pyrimidin-4-yl)amino)-2-methylhexyl)acetamide] | 0.0853 | 0.0604 | 44.6 |
| CCCC[C@](C)(CNC(C)=O)Nc1nc(N)nc2cc(C(C)C)cnc12 [Compound 2, (R)—N-(2-((2-amino-7-isopropylpyrido[3,2-d]pyrimidin-4-yl)amino)-2-methylhexyl)acetamide] | 0.262 | 0.209 | 35 |
| CCCC[C@](C)(CNC(C)=O)Nc1nc(N)nc2cc(OC)cnc12 [Compound 4, (R)—N-(2-((2-amino-7-methoxypyrido[3,2-d]pyrimidin-4-yl)amino)-2-methylhexyl)acetamide] | 0.122 | 0.12 | > 50 |
| CCCC[C@](C)(CNC(C)=O)Nc1nc(N)nc2cc(OCC)cnc12 [Compound 5, (R)—N-(2-((2-amino-7-ethoxypyrido[3,2-d]pyrimidin-4-yl)amino)-2-methylhexyl)acetamide] | 0.0812 | 0.0484 | > 50 |
| CCC[C@](C)(CNC(C)=O)Nc1nc(N)nc2cccnc12 [Compound 6, (R)—N-(2-((2-aminopyrido[3,2-d]pyrimidin-4-yl)amino)-2-methylpentyl)acetamide] | 1.46 | 1.24 | > 50 |
| CCCCCC[C@](C)(CNC(C)=O)Nc1nc(N)nc2cccnc12 [Compound 7] | 4.19 | 2.67 | > 50 |
| CCCC[C@H](CNC(C)=O)Nc1nc(N)nc2cc(F)cnc12 [Compound 8, (R)—N-(2-((2-amino-7-fluoropyrido[3,2-d]pyrimidin-4-yl)amino)hexyl)acetamide] | 1.88 | 1.48 | > 50 |
